pEC50, pKi: −log10 of the molar value. Read-outs that look alike come from different tables or passages of the source.
How the values were obtained:
PfA-M17 [1] = target: T1, PfA-M17 (Plasmodium falciparum, UniProt Q8IL11); assay: Determination of Ki values (Dixon plots, H-Leu-NHMec); assay type: biochemical; conditions: for pKi: Dixon plot
T1 construct: made in house; host or cells: Escherichia coli
T1 sequence (Q8IL11 84-605 limits assumed): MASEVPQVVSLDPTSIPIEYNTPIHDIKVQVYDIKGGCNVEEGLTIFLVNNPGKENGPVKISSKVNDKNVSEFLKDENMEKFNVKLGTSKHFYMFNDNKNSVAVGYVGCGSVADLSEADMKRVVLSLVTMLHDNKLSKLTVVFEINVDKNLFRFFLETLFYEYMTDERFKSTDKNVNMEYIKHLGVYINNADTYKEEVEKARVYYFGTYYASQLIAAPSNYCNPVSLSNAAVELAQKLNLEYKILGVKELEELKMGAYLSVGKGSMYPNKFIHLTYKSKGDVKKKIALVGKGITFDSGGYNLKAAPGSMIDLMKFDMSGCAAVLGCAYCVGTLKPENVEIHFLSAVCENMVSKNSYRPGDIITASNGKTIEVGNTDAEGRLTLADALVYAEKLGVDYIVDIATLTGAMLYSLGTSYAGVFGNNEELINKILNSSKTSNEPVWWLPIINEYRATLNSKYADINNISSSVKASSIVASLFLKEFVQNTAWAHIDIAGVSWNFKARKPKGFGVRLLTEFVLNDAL
Procedure: (§1) MMV020750 was purchased from InterBioScreen (catalog number STOCK2S-51608) and MMV666023 was purchased from ChemBridge (catalog number 5566248). The MMV020750 derivatives 1, 2 and 3 were purchased from Ambinter (catalog numbers AMB425981, AMB2311364 and AMB8506251 respectively). 4-(4,5-Diphenyl-1H-imidazol-2-yl)benzoic acid (4) was purchased from TCI Chemicals, while 4-(4,5-diphenyl-1H-imidazol-2-yl)-N-hydroxybenzamide (5) was prepared from 4 as described (S1 Methods). Aminopeptidase activity of both PfA-M1 and PfA-M17 enzymes was determined by measuring the release of the fluorogenic leaving group, NHMec, from the fluorogenic peptide L-Leucine-7-amido-4-methylcoumarin hydrochloride (H-Leu-NHMec) (Sigma L2145). The assay protocol devised by Stack CM, et al, (J. Biol Chem, 2007) was modified and used, with the reactions were carried out at 37°C and monitored using a spectrofluorometer (BMG FLUOstar) with excitation at 355 nm and emission at 460 nm. Each enzyme was pre-incubated in 50 mM Tris pH 8.0, 2 mM CoCl2; 5% DMSO with each inhibitor for 10 min prior to the addition of substrate. Inhibitor concentration was assayed between 0 and 500 μM final for each compound, and repeated over a narrowed range if necessary. The fluorescence signal was monitored until a final steady state velocity, V, was obtained. The K i values were then evaluated using Dixon plots of 1/V versus inhibitor concentration while the substrate concentration was maintained lower than that of the Km of the enzyme.
This was a particular problem with the PfA-M17 enzyme assays where we noted that at higher concentrations of 4, a decrease in fluorescence was observed. We hypothesise that this is a result of PfA-M17 binding to the compound and quenching the intrinsic fluorescence. […] We therefore chose to analyse a reduced concentration range for 4.

[2] = tested on: asexual blood stage of 3D7 Pf; conditions: cited from earlier work
PfA-M17 [3] = target: T1, PfA-M17; assay: Secondary screening against individual enzyme; assay type: biochemical; conditions: 100 μM compound; for reduction of PfA-M17 activity: n = 3
Procedure: (§2) Aminopeptidase activity of each individual enzyme in the presence of a single MMV compound (100 μM) was determined using Leu-Mec for both PfA-M1 (15 nM) and PfA-M17 (80 nM) or Glu-pNA for PfM18AAP (125 nM). Reactions were carried out in 96-well microtitre plates (200 μl total volume) in 50 mM Tris-HCl pH 8.0, 2 mM CoCl2 at 37°C. Following a 10 min incubation (enzyme and compound) at 37°C, reactions were initiated by addition of enzyme specific substrate. Progress curves were monitored using a FLUOstar Omega multimode reader (BMG LabTech) for 1.5 h at 37°C. As activity references, individual enzyme 'no compound' controls and 'positive inhibitor' controls were included in each 96 well plate assay. We applied a cut-off of < 10% activity in the presence of 100 μM compound for selection to the next phase. Compounds that were selected to proceed were then used in further assays to obtain n = 3.

PfA-M1 [4] = target: T2, PfA-M1 (Plasmodium falciparum, UniProt O96935); assay: Secondary screening against individual enzyme; assay type: biochemical; conditions: 100 μM compound
T2 construct: made in house; host or cells: Escherichia coli
T2 sequence (O96935 195-1085 limits assumed): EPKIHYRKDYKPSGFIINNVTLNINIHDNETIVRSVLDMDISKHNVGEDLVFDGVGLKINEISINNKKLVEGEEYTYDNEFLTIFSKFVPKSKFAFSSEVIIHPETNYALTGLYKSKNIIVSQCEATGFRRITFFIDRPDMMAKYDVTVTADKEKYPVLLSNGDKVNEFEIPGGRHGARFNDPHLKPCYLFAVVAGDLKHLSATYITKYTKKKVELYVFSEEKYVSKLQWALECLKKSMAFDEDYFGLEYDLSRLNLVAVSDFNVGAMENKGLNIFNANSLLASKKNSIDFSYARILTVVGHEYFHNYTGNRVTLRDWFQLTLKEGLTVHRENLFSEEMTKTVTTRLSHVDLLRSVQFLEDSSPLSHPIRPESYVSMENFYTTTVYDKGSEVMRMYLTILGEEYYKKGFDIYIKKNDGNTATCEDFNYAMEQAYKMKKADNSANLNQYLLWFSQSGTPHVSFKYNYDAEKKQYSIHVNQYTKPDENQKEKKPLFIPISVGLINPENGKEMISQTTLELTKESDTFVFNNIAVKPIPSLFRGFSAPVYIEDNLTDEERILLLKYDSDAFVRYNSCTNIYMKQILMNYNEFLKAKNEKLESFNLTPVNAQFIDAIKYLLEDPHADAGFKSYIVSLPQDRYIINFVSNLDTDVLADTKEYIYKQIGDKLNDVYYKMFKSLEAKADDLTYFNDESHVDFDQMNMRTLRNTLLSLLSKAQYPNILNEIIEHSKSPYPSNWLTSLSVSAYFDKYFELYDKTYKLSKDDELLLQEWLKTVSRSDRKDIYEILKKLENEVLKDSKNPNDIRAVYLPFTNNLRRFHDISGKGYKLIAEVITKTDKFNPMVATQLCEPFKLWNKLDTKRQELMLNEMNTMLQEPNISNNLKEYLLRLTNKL
Procedure: as §2

PfA-M1 [5] = target: T2, PfA-M1; assay: Determination of Ki values (Dixon plots, H-Leu-NHMec); assay type: biochemical
Procedure: as §1

PfA-M1 and/or PfA-M17 = assay: Multiplex primary screen, fluorogenic substrate Leu-Mec; assay type: biochemical, Plasmodium falciparum; conditions: 100 μM compound, multiplex assay
Procedure: A multiplex enzyme assay was developed to complete the primary screen of 400 compounds that were provided to us by MMV and SCYNEXIS. Combined PfMAP (15 nM PfA-M1; 80 nM PfA-M17 and 125 nM PfM18AAP) aminopeptidase activity in the presence of a single MMV compound (100 μM solubilized in 100% dimethyl sulfoxide, DMSO, final DMSO concentration in assay = 10%) was determined by simultaneous measurement of the release of the fluorogenic leaving group, -NHMec, from L-Leucine-7-amido-4-methylcoumarin-HCl (Leu-Mec) (Sigma) as well as the hydrolysis of p-nitroanilide from the chromogenic substrate, L-Glutamic acid p-nitroanilide (Glu-pNA) (Sigma). The fluorogenic substrate records the combined activity of PfA-M1 and PfA-M17 while the p-nitroanilide substrate is specific for PfM18AAP. Reactions were carried out in 96-well microtitre plates (200 μL total volume) in 50 mM Tris-HCl pH 8.0, 2 mM CoCl2 at 37°C. Following a 10 min incubation (multi-enzyme and single compound) at 37°C, reactions were initiated by addition of both fluorogenic and chromagenic substrates. Progress curves were monitored using a FLUOstar Omega multimode reader (BMG LabTech) for 1.5 h at 37°C. As activity references, individual enzyme and multiple enzyme 'no compound' controls and 'positive inhibitor' controls (with 10% DMSO) were included in each 96 well plate assay.

[6] = ref Avery, read-out: EC50 (Avery)
[7] = ref ChEMBL, read-out: EC50 (ChEMBL)
[8] = Dixon plot, read-out: Ki PfA-M1

| selectivity for PfA-M17 over M1 (PfA-M17 [1]; from Ki values) [fold] | PfA-M1 activity retained in the presence of compound (PfA-M1 [4]; n = 3, of total enzyme activity) [%] | pKi (PfA-M1 [5]; Dixon plot including the 500 uM values, read-out: Ki (with all values) PfA-M1) | PfA-M17 activity, single dose secondary screen (PfA-M17 [3]; n = 1) | PfA-M1 activity, single dose secondary screen (PfA-M1 [4]; n = 1) | SMILES | mode of inhibition of PfA-M17 (PfA-M17 [1]) | pKi (PfA-M17 [1]) | % Pf Inhibition @ 5 μM [2] [%] | pEC50 [2, 6] | pEC50 [2, 7] | reduction of PfA-M17 activity (PfA-M17 [3]) [%] | mode of inhibition of PfA-M1 (PfA-M1 [5]) | pKi (PfA-M1 [5]; [8]) | Activity (PfA-M1 and/or PfA-M17) (PfA-M1 and/or PfA-M17) | reduction of PfA-M1 activity (PfA-M1 [4]; n = 3) [%] | selectivity for PfA-M1 over M17 (PfA-M1 [5]; from Ki values) [fold] |
| --- | --- | --- | --- | --- | --- | --- | --- | --- | --- | --- | --- | --- | --- | --- | --- | --- |
| 6 | 75 | 3.65 | – | – | COc1cc(-c2nc(-c3ccccc3)c(-c3ccccc3)[nH]2)cc(OC)c1O [MMV020750] | competitive | 4.92 | 97 | 5.92 | 6.10 | 95 | competitive | 4.12 | R | – | – |
| – | – | – | false positive | false positive | O=C(Nc1ccc(-c2nc3ccccc3[nH]2)cc1)c1ccc(Cl)c(Cl)c1 [MMV665840] | – | – | – | – | – | – | – | – | R | – | – |
| – | – | – | – | – | c1ccc(Cn2c(/N=N/c3c(Nc4ccccc4)ccc4ccccc34)nc3ccccc32)cc1 [MMV666023] | competitive | 4.64 | 96 | 7.40 | 5.57 | 70 | competitive | 5.35 | R | 95 | 5 |
